Data taken from US8318815B2, “Method for treatment of tumors using nordihydroguaiaretic acid derivatives” (priority 1999, dated 2012).

Tests used:
[1] = test system: SP1-regulated HPV E6/E7 promoter; test: HPV16 LCR (P97 promoter) luciferase reporter assay in C33A cells; details: thirty hours after drug treatment
HSV-1 = HSV-1 skin infection in guinea pig, topical treatment; format: in vivo
Experimental: The drug M4N was also tested in inhibition of HSV-1 replication in skin infections in guinea pigs. Guinea pig skin was pinched with needles and HSV-1 […] was applied topically to infect each pricked area. M4N was then applied to the pricked infected area following infection daily for 6 days.
Six areas of bared back skin of a guinea pig were punched sterilely with a 5=DIN needle. Two areas were infected with HSV-1 (HSV-C, culture supernatant, or isolated HSV in saline, HSV-SC). The other four areas were infected with HSV-SC.

survivin gene expression = test: RT-PCR analysis of survivin gene expression in C3 cells; format: cell-based, mouse; details: 40 μM
Experimental: FIG. 17. RT-PCR Analysis of Survivin Gene Expression. […] Bottom: the corresponding GAPDH controls. Band intensities were quantitated with Scion Image. (b) Survivin RT-PCR product signals were normalized to those of the GAPDH controls and plotted.
M4N Treatment. C3 cells (5×10^6) were seeded in 150-mm plates and allowed to attach to the plates. Twenty-four hours after seeding, cultures were washed twice with PBS and treated with M4N dissolved in 1% DMSO mixed with the growth medium.
RT-PCR analysis. mRNA was isolated by the guanidinium thiocyanate and phenol method from the cultured cells as described in Molecular Cloning (40). […] The c-DNA products obtained were amplified under the PCR conditions: […], 60° C. for 55 seconds, and 72° C. for 1 minute for 30 cycles.

TC-1 cell line = test: TC-1 cell growth; details: TC-1 cells
Experimental: FIG. 9. […] (a-d) C3, CEM-T4, C33a, and TC-1 cells were treated with different concentrations of M4N. The number of cells present at the initiation of the experiment is indicated as Day 0. After three days the number of viable cells were counted and plotted versus the M4N concentration. […] After 3 days, one-half of the M4N treated cells were given fresh media containing only 1% DMSO (M-D), while the rest of the cells were given fresh media with the same conditions (second media change). The cells were counted daily and plotted versus the time of treatment.

[2] = Initial animal toxicity studies of M4N in mice; format: in vivo

With COc1ccc(C[C@@H](C)[C@@H](C)Cc2ccc(OC)c(OC)c2)cc1OC [M4N, tetra-O-methylnordihydroguaiaretic acid] the “Sp1 regulated transcription initiation at the HPV E6/E7 promoter (specific luciferase activity)” value [1] was “dramatically reduces”, the “blisters in HSV-1 infected skin areas at day 6” value (HSV-1; 30 μl of 60 mg/ml in DMSO, five times per day for six days) was “no blisters” and the “shedding of the virus” value (HSV-1; 4 days after the drug treatment) was “no shedding of the virus”. The “reduction in survivin expression” value (survivin gene expression; 24 hours) was 65%, the “reduction in survivin expression” value (survivin gene expression; 72 hours) was 80% and the “"threshold" concentration above which the percentage of viable cells decreases precipitously” value (TC-1 cell line) was 40 µM. For the same molecule, the “non-toxic to mice at concentrations as high as” value ([2]; given either subcutaneously or by IV) was at most 375 mg/kg and the “non-toxic to mice at concentrations as high as” value ([2]; given intraperitoneally) was at most 300 mg/kg.
